Measured values reported in patent US20120039917A1, “IMMUNO[…]” (priority 2008, published 2012).
Like-named read-outs stand apart in the source and are kept apart here.

Tests used:
Assay type in all cases: cell-based
MM-derived U226 = assay: Sensitivity of cell types to PXD, viability by AV/PI staining; details: Homo sapiens; U226, 10 μM PXD for 24 h; read-out: [% viable blasts after PXD exposure]/[% viable blasts after 0.1% DMSO exposure]
Protocol: (§1) FIG. 6. Sensitivity of different cell types to PXD. Different cell types were incubated with 10 μM PXD for 24 h and viability was determined by AV/PI staining and reported as [% viable blasts after PXD exposure]/[% viable blasts after 0.1% DMSO exposure]. Percentage values are as follows: AML-derived HL60: 16±5 and HL60p°: 54±6, ALL-derived MOLT-4: 44±4, MM-derived U226: 59±6 and RPMI 8226: 12±4, primary AML blasts: 64±5, primary ALL blasts: 23±4, normal BM: 89±5, proliferating T cells: 69±4, resting T cells: 98±6. Results from cell lines are presented as the average±SEM of at least 3 separate experiments, results from bone marrow samples are presented as the average±SD of single experiments performed in duplicate.
(§2) Cell lines were grown in RPMI-1640 medium (GIBCO-BRL, Grand Island, N.Y.) supplemented with 5% (v/v) fetal calf serum, 2 mM […], 25 μg/mL penicillin, 25 μg/mL streptomycin, 50 μg/mL uridine and 1 mM pyruvate to densities of 1-2×10^6 cells/mL (exponential stage), at 37° C. in a humidified incubator maintained at 5% CO2.
(§3) Cells were centrifuged at 1400 rpm in a Multifuge 3 s (Heraeus) for 4 min at room temperature, washed in phosphate buffered saline solution, pH 7.3 (PBS) and resuspended in Annexin V binding buffer. Small aliquots (0.5-1×10^6 cells) were transferred to 1.5 mL tubes and spun at 1400 rpm in a Multifuge 3 s (Heraeus) for 4 min. Most supernatant was removed and 5 μL PI and 5 μL FITC-labelled AV was added to the wet pellets which were vortexed. After 30 min in the dark on ice, 500 μl of AV binding buffer was added, the cells were centrifuged for 2 min at 1400 rpm, washed once with AV binding buffer and resuspended in 300 μL of AV binding buffer in FACS tubes. Staining was analyzed by flow cytometry using a Becton Dickinson Canto II FACS analyser using FlowJo (TreeStar) software.

ALL-derived MOLT-4 = assay: as above; details: Homo sapiens; MOLT-4, 10 μM PXD for 24 h; read-out: [% viable blasts after PXD exposure]/[% viable blasts after 0.1% DMSO exposure]
Protocol: as §1, §2, §3

HL60p° = assay: as above; details: Homo sapiens, 10 μM PXD for 24 h, read-out: [% viable blasts after PXD exposure]/[% viable blasts after 0.1% DMSO exposure]
Protocol: as §1, §2, §3

proliferating T cells [1] = assay: Apoptosis/viability by Annexin V/propidium iodide staining; details: Homo sapiens, T-cell
Protocol: (§4) Immediately prior to experiments, frozen PBMC were thawed, centrifuged at 1400 rpm in a Multifuge 3 s (Heraeus) for 4 min, washed in RPMI+10% FCS and resuspended in T cell medium (RPMI+10% FCS+10 μM 2-mercaptoethanol (Sigma), 1×glutamine, 1×non-essential amino acids (Gibco)) at 2×10^6 cells/mL. Cells (2×10^5) were activated by adding 10 μg/mL anti-CD3 and 5 μg/mL anti-CD28 and 20 U/mL IL-2 per well. Cells were incubated at 37° C. in a humidified incubator maintained at 5% CO2 for 4 to 5 days until large numbers of large spherical aggregates or “bursts” of lymphocytes were observed. Activated proliferating T cells were pooled from the wells for further experiments. Resting T cells were incubated for the same length of time but in the presence of 20 U/mL IL-2 only.
as §3
The extent of apoptosis in resting and proliferating T cells was determined after 24 h exposure to 10 μM PXD (FIG. 2) by AV/PI staining. […] Resting T cells were not affected (FIG. 2D). The percentage of viable proliferating T cells dropped from 74% (FIG. 2F) to 51% after exposure to 10 μM PXD for 24 h (FIG. 2H), whilst the percentage of viable resting T cells was unaltered (FIGS. 2B and D).
In order to investigate whether cells need to be exposed continually to PXD for its effects to manifest, proliferating T cells were exposed to 10 μM PXD for different periods of time, washed cells twice in RPMI and incubated for a further 24 h in fresh T cell medium.

proliferating T cells [2] = assay: PMET activity measured by WST-1/PMS reduction; details: Homo sapiens, T-cell, read-out: IC50 inhibition of PMET (WST-1/PMS reduction)
Protocol: as §4
(§5) WST-1/PMS reduction rates were measured in a microplate format as described previously (Berridge and Tan, 1998). […] WST-1 reduction was measured in real time at 450 nm over 30-60 min in a BMG FLUOstar OPTIMA plate reader.
(§6) The effect of PXD on PMET (FIG. 1A) was investigated by measuring reduction of the cell impermeable tetrazolium dye, WST-1, in the presence of its obligate intermediate electron acceptor, 1 mPMS (WST-1/PMS reduction). […] The effect of PXD on proliferation (FIG. 1B) was determined by measuring intracellular reduction of the tetrazolium salt, MTT.

resting T cells = assay: PMET activity measured by WST-1/PMS reduction; details: Homo sapiens, T-cell, read-out: IC50 inhibition of PMET (WST-1/PMS reduction)
Protocol: as §4, §5, §6

Oc1ccc(C2=Cc3ccc(O)cc3OC2)cc1 [PXD, Isoflav-3-en-4′,7-diol]
viability at 10 µM (MM-derived U226): 59 ± 6% | viability at 10 µM (ALL-derived MOLT-4): 44 ± 4% | viability at 10 µM (HL60p°): 54 ± 6% | viability at 10 µM (proliferating T cells [1]; 24 h, 10 μM PXD for 24 h, control 74%, read-out: percentage of viable proliferating T cells (AV/PI)): 51% | viability at 10 µM (proliferating T cells [1]; 24 h, proliferating T cells, 10 μM PXD for 24 h, read-out: [% viable blasts after PXD exposure]/[% viable blasts after 0.1% DMSO exposure]): 69 ± 4% | viability at 10 µM (proliferating T cells [1]; PXD pre-incubated in 10% FCS, 10 μM final, relative to 0.1% DMSO, read-out: % Viable cells after exposure time 24 h): 70 ± 7.1% | viability at 10 µM (proliferating T cells [1]; PXD pre-incubated in 10% FCS, 10 μM final, then 24 h, relative to 0.1% DMSO, read-out: % Viable cells after exposure time 1 min): 64 ± 4.6% | viability at 10 µM (proliferating T cells [1]; PXD pre-incubated in 10% FCS, 10 μM final, then 24 h, relative to 0.1% DMSO, read-out: % Viable cells after exposure time 10 min): 60 ± 7.1% | viability at 10 µM (proliferating T cells [1]; PXD pre-incubated in 90% FCS, 10 μM final, relative to 0.1% DMSO, read-out: % Viable cells after exposure time 24 h): 69 ± 7.2% | viability at 10 µM (proliferating T cells [1]; PXD pre-incubated in 90% FCS, 10 μM final, then 24 h, relative to 0.1% DMSO, read-out: % Viable cells after exposure time 1 min): 66 ± 4.2% | viability at 10 µM (proliferating T cells [1]; PXD pre-incubated in 90% FCS, 10 μM final, then 24 h, relative to 0.1% DMSO, read-out: % Viable cells after exposure time 10 min): 62 ± 5.7% | viability at 10 µM (proliferating T cells [1]; PXD pre-incubated in 90% Human Serum, 10 μM final, relative to 0.1% DMSO, read-out: % Viable cells after exposure time 24 h): 73.5 ± 9.2% | viability at 10 µM (proliferating T cells [1]; PXD pre-incubated in 90% Human Serum, 10 μM final, then 24 h, relative to 0.1% DMSO, read-out: % Viable cells after exposure time 1 min): 69 ± 4.4% | viability at 10 µM (proliferating T cells [1]; PXD pre-incubated in 90% Human Serum, 10 μM final, then 24 h, relative to 0.1% DMSO, read-out: % Viable cells after exposure time 10 min): 72 ± 7.3% | IC50 (proliferating T cells [2]): 46 µM | IC50 (resting T cells): > 200 µM
